Results on 9 molecules are retold here after paper PMC4774911, “Biochemical Screening of Five Protein Kinases from Plasmodium falciparum against 14,000 Cell-Active Compounds” (PLoS ONE, 2016).

The target of assay [1] is T1, Plasmodium falciparum protein kinase 6 (PK6) (Plasmodium falciparum, UniProt Q8IDW1).
T1 construct: 6-Histidine (N); made in house
T1 sequence (Q8IDW1 1-305): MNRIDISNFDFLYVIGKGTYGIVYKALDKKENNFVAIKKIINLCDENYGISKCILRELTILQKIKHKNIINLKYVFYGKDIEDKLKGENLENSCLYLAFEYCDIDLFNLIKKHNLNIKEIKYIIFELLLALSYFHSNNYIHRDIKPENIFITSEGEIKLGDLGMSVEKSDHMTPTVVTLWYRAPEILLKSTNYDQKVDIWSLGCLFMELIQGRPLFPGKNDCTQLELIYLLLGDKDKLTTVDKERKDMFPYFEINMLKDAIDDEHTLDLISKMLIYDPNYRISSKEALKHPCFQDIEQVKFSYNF
Kind of assay: biochemical. To be noted: hits below 1 uM; read-out: PK6 IC50.

In a further assay the test system is DD2. On the set-up: method as in downloaded from ChEMBL. The following applies: ref downloaded from ChEMBL; cited from earlier work.
The subject of a further assay is HepG2 cells. To be noted: HEPG2; ref downloaded from ChEMBL; cited from earlier work.
Another assay deals with 3D7 PFLDH. Further details: method as in downloaded from ChEMBL. To be noted: ref downloaded from ChEMBL; cited from earlier work.
In assay [2] the target is T2, Plasmodium falciparum calcium-dependent protein kinase 1 (CDPK1) (Plasmodium falciparum, UniProt P62344).
T2 construct: 6-Histidine (N); made in house
T2 sequence (P62344 whole entry): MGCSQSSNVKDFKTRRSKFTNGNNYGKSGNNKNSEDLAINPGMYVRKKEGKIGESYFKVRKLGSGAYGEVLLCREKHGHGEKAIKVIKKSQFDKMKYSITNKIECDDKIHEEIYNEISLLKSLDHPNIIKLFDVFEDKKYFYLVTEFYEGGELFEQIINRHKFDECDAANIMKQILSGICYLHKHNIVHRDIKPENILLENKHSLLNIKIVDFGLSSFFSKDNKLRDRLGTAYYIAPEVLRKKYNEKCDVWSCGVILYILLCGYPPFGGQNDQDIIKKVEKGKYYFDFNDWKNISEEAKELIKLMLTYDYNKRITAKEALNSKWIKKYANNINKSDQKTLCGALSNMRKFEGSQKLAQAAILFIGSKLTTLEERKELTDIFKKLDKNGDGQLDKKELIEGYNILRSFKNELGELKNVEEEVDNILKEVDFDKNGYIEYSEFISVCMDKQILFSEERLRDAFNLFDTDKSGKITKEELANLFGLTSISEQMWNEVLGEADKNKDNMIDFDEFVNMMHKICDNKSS
Kind of assay: CDPK1 Kinase-Glo ATP-consumption screen and dose-response. The format is biochemical. To be noted: hits below 1 uM; read-out: CDPK1 IC50. A digest of the protocol: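 ATP consumption by recombinant P. falciparum CDPK4 or CDPK1 measured as residual ATP by Kinase-Glo luminescence, with 40 μM Syntide-2 substrate and 90 min incubation stopped with 5 mM EGTA. Single-point screen at 1 μM final, followed by dose-response; no-substrate wells as negative control.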

A further assay has as its system P. falciparum 3D7 cells. To be noted: 3D7; ref downloaded from ChEMBL; cited from earlier work.

`NCCNC(=O)c1ccc(-c2cnc3[nH]cc(-c4ccc(C(N)=O)cc4)c3c2)cc1` [TCMDC-132359]: the IC50 in assay [1] was found to be 931 nM. Moreover, the PCT_INHB_DD2 in the assay with DD2 was 98. Besides, the PCT_INHIB_HEPG2 in the assay on HepG2 cells is recorded as 2. Moreover, the PCT_INHIB_3D7_PFLDH in the assay on 3D7 PFLDH is on record as 0. The IC50 in assay [2] was determined as 24 nM. Besides, in the assay on P. falciparum 3D7 cells, the PCT_IHB_3D7 is listed as 99 and the pXC50_3D7 is recorded as 6.7676.

In the case of `NCCNS(=O)(=O)c1ccc(-c2ccnc3[nH]c(-c4ccncc4)cc23)cc1.O=C(O)C(F)(F)F` [TCMDC-133364], the IC50 stood at 207 nM in assay [1] and 422 nM in assay [2]. Also, in the assay with DD2, the PCT_INHB_DD2 was 95. In addition, the PCT_INHIB_HEPG2 in the assay on HepG2 cells is reported as 0. The PCT_INHIB_3D7_PFLDH in the assay on 3D7 PFLDH was 3. The PCT_IHB_3D7 with P. falciparum 3D7 cells was 96. The pXC50_3D7 in the assay with P. falciparum 3D7 cells is 6.076.

For the molecule `Cn1cc(-c2ccnc3[nH]c(-c4cccc(CNC5CCC(O)CC5)c4)cc23)cn1.O=C(O)C(F)(F)F` (centres unmarked) [TCMDC-133805], the IC50 in assay [1] worked out at 177 nM; in assay [2], 46 nM. Moreover, the PCT_INHB_DD2 with DD2 is given as 82. Besides, in the assay with HepG2 cells, the PCT_INHIB_HEPG2 is given as 48. In addition, the PCT_INHIB_3D7_PFLDH with 3D7 PFLDH was 2. The PCT_IHB_3D7 with P. falciparum 3D7 cells is 95. Moreover, in the assay on P. falciparum 3D7 cells, the pXC50_3D7 is given as 6.044.

On to `CN(C)Cc1cccc(-c2cc3c(-c4cnn(C)c4)c(Cl)cnc3[nH]2)c1` [TCMDC-134147], for which the concentration for half-maximal inhibition (IC50) in assay [1] worked out at 128 nM. In addition, the PCT_INHB_DD2 in the assay with DD2 was 21. In addition, the PCT_INHIB_HEPG2 in the assay with HepG2 cells was 75. In the assay with 3D7 PFLDH, the PCT_INHIB_3D7_PFLDH was 0. For the same molecule, the IC50 in assay [2] was 402 nM. Further, in the assay on P. falciparum 3D7 cells, the PCT_IHB_3D7 is 96 and the pXC50_3D7 is on record as 6.043.

Consider `COc1c(CN2CCOCC2)cccc1-c1cc2c(-c3ccc(C(=O)O)c(C(C)C)c3)ccnc2[nH]1.O=C(O)C(F)(F)F` [TCMDC-135049], for which the IC50 in assay [1] worked out at 695 nM. Also, in the assay on DD2, the PCT_INHB_DD2 is recorded as 90. In addition, in the assay with HepG2 cells, the PCT_INHIB_HEPG2 is on record as 44. Moreover, in the assay on 3D7 PFLDH, the PCT_INHIB_3D7_PFLDH is 0. In the assay on P. falciparum 3D7 cells, the PCT_IHB_3D7 was 98 and the pXC50_3D7 is 6.1293.

`COc1c(CN2CCCC2)cccc1-c1cc2c(-c3ccc(C(=O)O)c(C(C)C)c3)ccnc2[nH]1.O=C(O)C(F)(F)F` [TCMDC-135050]: the IC50 in assay [1] worked out at 541 nM. For the same molecule, the PCT_INHB_DD2 in the assay with DD2 is reported as 98. The PCT_INHIB_HEPG2 with HepG2 cells was 56. The PCT_INHIB_3D7_PFLDH in the assay with 3D7 PFLDH is reported as 0. Further, in the assay with P. falciparum 3D7 cells, the PCT_IHB_3D7 was 99 and the pXC50_3D7 is reported as 6.357.

Turning to `NS(=O)(=O)c1ccc(Nc2nccc(-c3c(-c4cccc(NC(=O)c5c(F)cccc5F)c4)nn4ccccc34)n2)cc1` [TCMDC-135528], the IC50 in assay [1] is 140 nM. For the same molecule, the PCT_INHB_DD2 in the assay with DD2 is recorded as 89. Besides, the PCT_INHIB_HEPG2 in the assay with HepG2 cells was 83. Besides, the PCT_INHIB_3D7_PFLDH in the assay on 3D7 PFLDH is 0. The IC50 in assay [2] is 48 nM. Also, in the assay on P. falciparum 3D7 cells, the PCT_IHB_3D7 is on record as 93 and the pXC50_3D7 was 6.118.

`c1cncc(Oc2ccc(Nc3ccnc4cc(-c5cccc(CNCCN6CCOCC6)c5)ccc34)cc2)c1` [TCMDC-138492]: the PCT_INHB_DD2 in the assay with DD2 is recorded as 99. In the assay on HepG2 cells, the PCT_INHIB_HEPG2 is on record as 14. Also, the PCT_INHIB_3D7_PFLDH in the assay with 3D7 PFLDH is listed as 4. The IC50 in assay [2] turned out to be 705 nM. For the same molecule, in the assay on P. falciparum 3D7 cells, the PCT_IHB_3D7 is 100 and the pXC50_3D7 is given as 6.952.

As to `CN(C)CCNCc1cccc(-c2ccc3c(Nc4ccc(Oc5ccccn5)cc4)ccnc3c2)c1` [TCMDC-138493], in the assay with DD2, the PCT_INHB_DD2 was 100. For the same molecule, the PCT_INHIB_HEPG2 in the assay with HepG2 cells is listed as 27. Besides, the PCT_INHIB_3D7_PFLDH with 3D7 PFLDH is 2. The IC50 in assay [2] was found to be 845 nM. Besides, in the assay on P. falciparum 3D7 cells, the PCT_IHB_3D7 is recorded as 99 and the pXC50_3D7 is given as 6.633.
